{
  "source": "patent EP2815749A1",
  "about": "“Solid form of 4-amino-2-(2,6-dioxopiperidine-3-yl)isoindoline-1,3-dione having specified X-ray diffraction pattern” (IP Gesellschaft für Management mbH, priority 2013, dated 2014)",
  "key": {"[1]": {"assay": "Polymorph screening: crash cooling", "assay_type": "physicochemical", "method": "(§1) Polymorph screening: A polymorph screen was conducted in the methylethyl ketone (MEK)/ water solvent systems, as well as in the acetonitrile (ACN), ACN/water and isopropyl acetate solvent systems. Polymorph screening techniques included crash cooling, solvent evaporation, antisolvent addition, and slurry experiments. Slurry experiments were performed on an IKA RCT hot plate with magnetic stirring set to 710 rpm. The temperature was controlled with an IKA ETS-D5 thermocouple. Solvent volumes were measured and transferred with Gibson Pipetteman volumetric pipettes. New forms that were identified as solvates were subjected to desolvation under two potential conditions: (1) drying in a vacuum oven at 40°C and (2) sitting undisturbed under ambient conditions in a fume hood. Physical characterization of all forms proceeded by X-ray powder diffraction (XRPD) and thermogravimetric analysis (TGA).\nExperiment 1: Crash Cooling: A saturated solution of Compound (VII), Form XX was made by preparing 1 mL slurries using acetonitrile (ACN), ACN- water (75:25), methylethyl ketone (MEK), or MEK-water (99:1, 90:10, or 80:20) in vials. After 24 hours in capped HPLC vials, the slurries were then filtered to remove residual solids. Approximately 2 additional milligrams of Compound (VII) was added to each vial containing a saturated solution. Next, the vials were heated to 70°C with stirring until all of the material was completely dissolved. Immediately after, the samples were submerged into an ice bath. The product, which precipitated as a white powder within 1 minute, was isolated by filtration and analyzed by XRPD and TGA."}, "AF508-CFTR": {"target": "T1, AF508-CFTR (Homo sapiens, UniProt P13569, DEL508-508)", "T1 construct": "expressed in transfected cells", "T1 sequence (P13569 with tags, fused parts or gaps DEL508-508)": "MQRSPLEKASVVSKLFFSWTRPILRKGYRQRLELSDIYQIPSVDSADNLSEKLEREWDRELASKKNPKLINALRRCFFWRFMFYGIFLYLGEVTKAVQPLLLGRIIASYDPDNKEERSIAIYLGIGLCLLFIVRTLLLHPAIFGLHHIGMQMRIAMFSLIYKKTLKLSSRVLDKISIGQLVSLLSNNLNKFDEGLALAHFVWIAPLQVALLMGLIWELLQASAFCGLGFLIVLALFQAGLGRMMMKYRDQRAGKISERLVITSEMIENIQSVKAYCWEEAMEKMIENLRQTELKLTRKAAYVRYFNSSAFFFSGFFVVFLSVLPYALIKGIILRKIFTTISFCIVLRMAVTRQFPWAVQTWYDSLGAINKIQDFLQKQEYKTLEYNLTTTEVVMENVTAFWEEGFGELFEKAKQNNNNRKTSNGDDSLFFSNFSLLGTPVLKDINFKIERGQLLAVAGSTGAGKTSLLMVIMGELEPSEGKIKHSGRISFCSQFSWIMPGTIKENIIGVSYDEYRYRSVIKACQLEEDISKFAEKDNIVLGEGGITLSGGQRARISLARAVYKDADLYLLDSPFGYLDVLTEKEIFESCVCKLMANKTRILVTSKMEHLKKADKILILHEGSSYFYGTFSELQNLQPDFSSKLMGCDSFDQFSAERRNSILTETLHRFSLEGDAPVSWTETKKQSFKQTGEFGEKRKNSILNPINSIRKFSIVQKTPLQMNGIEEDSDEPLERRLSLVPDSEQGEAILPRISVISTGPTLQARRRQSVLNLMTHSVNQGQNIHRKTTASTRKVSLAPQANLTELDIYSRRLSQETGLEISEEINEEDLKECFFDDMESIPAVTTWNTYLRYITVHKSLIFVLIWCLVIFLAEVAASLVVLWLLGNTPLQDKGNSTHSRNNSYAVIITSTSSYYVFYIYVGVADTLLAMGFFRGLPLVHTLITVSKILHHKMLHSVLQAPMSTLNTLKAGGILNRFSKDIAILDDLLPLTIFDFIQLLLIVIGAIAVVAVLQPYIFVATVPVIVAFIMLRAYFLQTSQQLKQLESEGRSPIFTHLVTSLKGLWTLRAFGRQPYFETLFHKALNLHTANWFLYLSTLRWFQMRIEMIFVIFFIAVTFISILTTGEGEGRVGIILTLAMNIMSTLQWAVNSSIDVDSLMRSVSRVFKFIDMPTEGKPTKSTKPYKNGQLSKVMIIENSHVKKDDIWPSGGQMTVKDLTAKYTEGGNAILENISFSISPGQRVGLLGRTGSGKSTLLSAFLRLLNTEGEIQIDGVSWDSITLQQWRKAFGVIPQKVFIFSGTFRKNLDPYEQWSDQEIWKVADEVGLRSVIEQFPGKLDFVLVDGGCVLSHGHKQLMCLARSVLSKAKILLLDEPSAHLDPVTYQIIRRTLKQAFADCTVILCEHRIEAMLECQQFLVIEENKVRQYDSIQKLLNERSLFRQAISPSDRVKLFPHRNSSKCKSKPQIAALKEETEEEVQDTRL", "assay": "Membrane potential optical assay for potentiation (FLIPR III)", "assay_type": "cell-based", "conditions": "relative efficacy", "excerpt": "SINGLE CRYSTAL […] OF FORM T: Single crystal analysis was done on a crystal of Form T ({drug7r}) as described above. […] The driving force for the response is the creation of a chloride ion gradient in conjunction with channel activation by a single liquid addition step after the cells have previously been treated with compounds and subsequently loaded with a voltage sensing dye. Identification of Potentiator Compounds: To identify potentiators of AF508-CFTR, a double-addition HTS assay format was developed. […] The driving force for the response is a CI\" ion gradient in conjunction with channel activation with forskolin in a single liquid addition step using a fluorescent plate reader such as FLIPR III after the cells have previously been treated with potentiator compounds (or DMSO vehicle control) and subsequently loaded with a redistribution dye. […] HBE grown on Costar® Snapwell™ cell culture inserts were mounted in an Using chamber (Physiologic Instruments, Inc., San Diego, CA), and the transepithelial resistance and short-circuit current in the presence of a basolateral to apical CI\" gradient (Isc) were measured using a voltage-clamp system (Department of Bioengineering, University of Iowa, IA). […]"}, "[2]": {"assay": "Polymorph screening: solvent evaporation", "assay_type": "physicochemical", "conditions": "form obtained", "method": "as §1\nA saturated solution was made by slurrying Compound (VII), Form XX in 5 mL of solvent (ACN, isopropyl acetate (IP Ac), or MEK) or 1 mL of solvent for the MEK/Water solvent system. After 24 hours, the residual solids were removed by filtration. The saturated solutions were then subjected to rapid solvent evaporation by blowing nitrogen (N2) gas over the samples with a Pierce Model 18780 Reacti-Vap evaporating unit for four hours. The product precipitated as a white powder and the form was analyzed by XRPD and TGA."}, "[3]": {"assay": "Polymorph screening: antisolvent addition", "assay_type": "physicochemical", "conditions": "form obtained", "method": "as §1\nExperiment 3: Antisolvent Addition: A saturated solution of Compound (VII), Form XX was made by slurrying either in 5 mL of solvent in the ACN, IP Ac, and MEK solvent systems, 2 mL total solvent for IP Ac/water, or 1 mL total solvent for the MEK/water solvent systems. After 24 hours, the residual solids were removed by filtration 20 mL of antisolvent was then quickly added to the saturated solutions to induce precipitation. Hexane was used as the antisolvent in the MEK and IP Ac solvent systems, and MTBE was used as the antisolvent in the ACN solvent systems, as a consequence of the immiscibility between ACN and hexane. The product precipitated as a white powder and the form was analyzed by XRPD and TGA. Table 9."}, "[4]": {"conditions": "Solvent System Acetonitrile/H2O"}},
  "data": [
    {"smiles": "CC(C)(C)c1cc(C(C)(C)C)c(NC(=O)c2c[nH]c3ccccc3c2=O)cc1O", "note": "[Compound (VII), N-[2,4-bis(1,1-dimethylethyl)-5-hydroxyphenyl]-1,4-dihydro-4-oxoquinoline-3-carboxamide]", "values": [
      {"measurement": "Solvate Polymorph", "setting": "[1]; Solvent System Acetonitrile", "result": "Form D"},
      {"measurement": "Solvate Polymorph", "setting": "[1]; [4]", "result": "Form D"},
      {"measurement": "Solvate Polymorph", "setting": "[1]; Solvent System MEK", "result": "Form E"},
      {"measurement": "Solvate Polymorph", "setting": "[1]; Solvent System MEK/H2O (80:20)", "result": "Form E"},
      {"measurement": "Solvate Polymorph", "setting": "[1]; Solvent System MEK/H2O (90:10)", "result": "Form E"},
      {"measurement": "Solvate Polymorph", "setting": "[1]; Solvent System MEK/H2O (99:1)", "result": "Form E"},
      {"measurement": "Solvate Polymorph", "setting": "[1]; Solvent System Water", "result": "not soluble"},
      {"measurement": "% Activity", "setting": "AF508-CFTR", "result": "++ (\"++\" means between 25% to 100%)"},
      {"measurement": "Solvent Evaporation", "setting": "[2]; [4]", "result": "Form F"},
      {"measurement": "Solvent Evaporation", "setting": "[2]; Solvent System IPAc", "result": "Form G Semi-crystalline"},
      {"measurement": "Solvent Evaporation", "setting": "[2]; Solvent System IPAc/H2O", "result": "Form H"},
      {"measurement": "Solvent Evaporation", "setting": "[2]; Solvent System MEK", "result": "Form I"},
      {"measurement": "Solvent Evaporation", "setting": "[2]; Solvent System MEK/H2O (80:20)", "result": "Form E"},
      {"measurement": "Solvent Evaporation", "setting": "[2]; Solvent System MEK/H2O (90:10)", "result": "Form E"},
      {"measurement": "Solvent Evaporation", "setting": "[2]; Solvent System MEK/H2O (99:1)", "result": "Form J"},
      {"measurement": "Solvent Evaporation", "setting": "[2]; Solvent System Water", "result": "not soluble"},
      {"measurement": "Antisolvent Addition", "setting": "[3]; Solvent System IPAc/H2O", "result": "Form T"},
      {"measurement": "Antisolvent Addition", "setting": "[3]; Solvent System MEK", "result": "Form K"},
      {"measurement": "Antisolvent Addition", "setting": "[3]; Solvent System MEK/H2O (80:20)", "result": "Form K"},
      {"measurement": "Antisolvent Addition", "setting": "[3]; Solvent System MEK/H2O (90:10)", "result": "Form K"},
      {"measurement": "Antisolvent Addition", "setting": "[3]; Solvent System MEK/H2O (99:1)", "result": "Form K"},
      {"measurement": "Antisolvent Addition", "setting": "[3]; Solvent System Water", "result": "not soluble"}
    ]}
  ]
}
